The nature of the data set: activity coefficient (dimensionless); of the first substance listed, at infinite dilution; xn = mol fraction of the nth substance listed. To be noted: 101 kPa, Liquid, Chromatography, x1 = 0.

± gives the expanded uncertainty stated by the source.

In the case of `CCO` [ethanol] + CC[S+](CC)CC.O=S(=O)([N-]S(=O)(=O)C(F)(F)F)C(F)(F)F, the activity coefficient turned out to be 2.15 ± 0.15 (298.15 K); 1.95 ± 0.13 (308.15 K); 1.77 ± 0.12 (318.15 K); 1.61 ± 0.11 (328.15 K); 1.48 ± 0.1 (338.15 K); 1.36 ± 0.09 (348.15 K). The activity coefficient reads like this: (358.15 K) 1.27 ± 0.08; (368.15 K) 1.18 ± 0.08.
As to `C#CCCCC` [1-hexyne] + CC[S+](CC)CC.O=S(=O)([N-]S(=O)(=O)C(F)(F)F)C(F)(F)F, the activity coefficient (298.15 K) was determined as 3.63 ± 0.25; the activity coefficient (308.15 K) worked out at 3.62 ± 0.25; the activity coefficient (318.15 K) was determined as 3.6 ± 0.25; the activity coefficient (328.15 K) worked out at 3.58 ± 0.24; the activity coefficient (338.15 K) is 3.57 ± 0.24; the activity coefficient (348.15 K) stood at 3.56 ± 0.24. In addition, the activity coefficient amounted to 3.54 ± 0.24 (358.15 K) and 3.53 ± 0.24 (368.15 K).
For `C#CCCCCC` [1-heptyne] + CC[S+](CC)CC.O=S(=O)([N-]S(=O)(=O)C(F)(F)F)C(F)(F)F, the activity coefficient was found to be 5.34 ± 0.36 (298.15 K); 5.28 ± 0.36 (308.15 K); 5.21 ± 0.36 (318.15 K); 5.14 ± 0.35 (328.15 K); 5.08 ± 0.35 (338.15 K); 5.04 ± 0.34 (348.15 K). In addition, the activity coefficient amounted to 4.98 ± 0.34 (358.15 K) and 4.93 ± 0.34 (368.15 K).

(Values after the NIST ThermoML archive (doi:10.1016/j.jct.2008.12.005).)
